Source: ChEMBL document CHEMBL5113387, “An insight into the multifunctional role of ghrelin and structure activity relationship studies of ghrelin receptor ligands with clinical trials” (Eur J Med Chem, 2022)
Peptide text beside a SMILES is read from it.

Key:
[1] = Stimulation of growth hormone secretion in rat pituitary cells; assay type: functional, cell-based; conditions: Pituitary gland cell
[2] = biological target: T1, Growth hormone secretagogue receptor type 1 (Homo sapiens, UniProt Q92847); experiment: Binding affinity to GHS-R1a (unknown origin) assessed as inhibition constant
T1 sequence (Q92847 whole entry): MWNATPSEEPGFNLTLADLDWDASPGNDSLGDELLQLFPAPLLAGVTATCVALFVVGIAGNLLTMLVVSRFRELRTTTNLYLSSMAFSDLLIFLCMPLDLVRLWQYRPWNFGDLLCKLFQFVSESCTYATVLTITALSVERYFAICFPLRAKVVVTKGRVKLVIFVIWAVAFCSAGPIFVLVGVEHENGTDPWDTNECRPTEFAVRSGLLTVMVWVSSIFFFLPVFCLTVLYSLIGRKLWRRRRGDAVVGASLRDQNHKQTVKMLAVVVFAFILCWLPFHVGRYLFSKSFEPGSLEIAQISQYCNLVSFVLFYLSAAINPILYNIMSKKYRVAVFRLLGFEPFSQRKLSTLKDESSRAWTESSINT

[3] = Stimulation of growth hormone secretion in Wistar rat pituitary cells measured after 15 mins; assay type: functional, cell-based; conditions: Pituitary gland cell, 0.25 h
[4] = Oral bioavailability in human; assay type: ADME, organism-based; conditions: in vivo
[5] = biological target: T1, Growth hormone secretagogue receptor type 1; experiment: Binding affinity to GHS-R1a (unknown origin); conditions: filed as agonist

## C[C@H](O)CNC(C)(C)CC(=O)N[C@@H]1CCc2ccccc2N(Cc2ccc(-c3ccccc3-c3nn[nH]n3)cc2)C1=O
[1]
  EC50: 3 nM

## CC(C)(N)CC(=O)N[C@@H]1CCc2ccccc2N(Cc2ccc(-c3ccccc3-c3nn[nH]n3)cc2)C1=O
[1]
  EC50: 60 nM

## CN1CCC(S(=O)(=O)N[C@@H](COCc2ccccc2)C(=O)N2CCC3(CC2)CN(S(C)(=O)=O)c2ccccc23)CC1
[2]
  Ki: < 100 nM

## C[C@H](NC(=O)[C@H](Cc1c[nH]c2ccccc12)NC(=O)[C@@H](N)Cc1c[nH]cn1)C(=O)N[C@@H](Cc1c[nH]c2ccccc12)C(=O)N[C@@H](Cc1ccccc1)C(=O)N[C@@H](CCCCN)C(N)=O (H-HWAWFK-NH2)
[1]
  EC50: 10 nM

## CN1N=C2CCN(C(=O)[C@@H](COCc3ccccc3)NC(=O)C(C)(C)N)C[C@@]2(Cc2ccccc2)C1=O [CAPROMORELIN]
[3]
  EC50: 3 nM

## Cc1[nH]c2ccccc2c1C[C@@H](NC(=O)[C@@H](N)Cc1cnc[nH]1)C(=O)N[C@@H](C)C(=O)N[C@@H](Cc1c[nH]c2ccccc12)C(=O)N[C@H](Cc1ccccc1)C(=O)N[C@@H](CCCCN)C(N)=O [EXAMORELIN] (HELM PEPTIDE1{H.[Cc1[nH]c2ccccc2c1C[C@@H](N[*:1])C(=O)[*:2]].A.W.[dF].K.[am]}$$$$V2.0)
[4]
  bioavailability: < 1%

## CC(C)(N)C(=O)N[C@H](COCc1ccccc1)C(=O)N1CCC2(CC1)CN(S(C)(=O)=O)c1ccccc12 [IBUTAMOREN]
[1]
  EC50: 1.3 nM
[5]
  Activity: 0.3 nM
